Converted amounts (≈) assume the structure as drawn. A value given as a limit tells only on which side of the number the result lay.

In the first assay the test system is C. albicans. Nature of the assay: MIC, broth microdilution (NCCLS M27-A), C. albicans. It counts as cell-based, Candida albicans. The following applies: 35° C., 48 hours, C. albicans ATCC 10231. As to the method: (§1) Compounds of the invention were tested for antifungal susceptibility using broth microdilution assay established by the National Committee for Clinical Laboratory Standards, in NCCLS Document M27-A, which is hereby incorporated by reference. Minimum inhibitory concentrations (MICs) and minimum fungicidal concentrations (MFCs) were measured.
(§2) Yeasts (Saccharomyces cerevisiae and Candida albicans) are cultured on SDA plates in a 35° C. incubator. Strains on SDA plates are stored at 4° C. and used as working stock cultures.
(§3) Inoculum for susceptibility testing is prepared from fresh 24 hour cultures. 5-10 colonies are scraped from the plate and suspended in three milliliters of sterile 0.85% saline (8.5 g/liter NaCl). The cell density of the solution is determined by measuring the absorbance in a spectrophotometer (Shimadzu UV-1201S UV-VIS Spectrophotometer) set at 600 nm. An absorbance value between 0.1 and 0.4 is required for an accurate reading.
(§4) For Candida albicans strains ATCC 10231, 1.0 OD600 unit is approximately 10^7 cells per ml. For Saccharomyces cerevisiae strain CTY552, 1.0 OD600 unit is slightly less than 10^7 cells per ml. Cell suspensions are diluted with the appropriate medium (typically RPMI-1640) to OD600 =0.0003 for Candida and OD600 =0.0004 for Saccharomyces. The diluted suspension contains approximately 3×10^3 cells per ml (this is a 2×concentration inoculum). Two 100 μl aliquots of this dilution are spread on SDA plates and incubated at 35° C. for 1-2 days to determine the precise number of colony forming units. An acceptable range for the inoculum (2×) is 1-5×10^3 cfu/ml (100-500 for 100 μl). Following two-fold dilution of the inoculum with compound, the final concentration of cells will be 0.5-2.5×10^3 per ml. The inoculum is kept at 4° C. and used within a few hours.
(§5) Stock solutions and concentrations tested will vary from compound to compound. In general, though, stock solutions of 12.8 mg/ml in DMSO (Sigma D-8779) are prepared. This will allow for a 128 μg/ml starting test concentration containing 1% DMSO. Stock solutions are stored at -20° C. and dilutions for antifungal testing are freshly prepared before each assay.
(§6) Stock solutions of Amphotericin B and Itraconazole are prepared at 1.6 mg/ml in DMSO. Amphotericin B is sold as a powder that is approximately 80% Amphotericin B. Stock solutions are made accordingly (2.0 mg of powder for a 1 ml solution of 1.6 mg/ml Amphotericin B).
(§7) Both of these (control and test compounds) represent 1:50 dilutions. For an assay with three fungal strains, 40 microliters of a stock solution are diluted to 2.0 ml with room temperature medium.
(§8) Antifungal susceptibility tests are setup in polystyrene, 96-well, flat bottom plates (Costar 9017). To every well in columns 2-12 is added 100 microliters of media. An electronic multichannel (12) pipettor with no tip on channel one is used. To every well in column one is added 200 microliters of diluted compound (32 μg/ml for Amphotericin B and Itraconazole controls, 256 μg/ml for test compounds, 100-fold dilution for natural product extracts). A manual multichannel (8) pipettor is then used to set up a series of 2-fold dilutions. 100 microliters is removed from each well of column one and mixed with 100 microliters in column 2. This is done successively (column two to column three etc.) to produce a set of 11 serial dilutions (column 12 is a drug free control).
(§9) To every well in two rows, 100 μl of inoculum (2×) of a single strain is added. To the final two rows on the plate (G & H), only media is added. Addition of inoculum is best accomplished using an electronic multichannel (12) pipettor. This setup (see below) creates a starting cell density of […] (100-500 per well) and drug concentration ranging from 16 μg/ml to […] for controls (Amphotericin B and Itraconazole), 128 μg/ml to 0.125 μg/ml for pure test compounds, and 200 to 204, 800-fold dilutions for natural product extracts.
(In broth dilution the organism is exposed to a series of concentrations in liquid medium.)
For “2-pyridyl-benzaldehyde-N-(3-methoxy-2-pyrazinyl)hydrazine [(34)]”, the “MIC C. albicans” value was 2 mg/L.

Take “3-carboxyl-2-hydroxybenzaldehyde-N-(3-methoxy-2-phenyl)hydrazine [(17)]”: the “MIC C. albicans” value is over 128 mg/L.

Turning to “N-[(4-dimethylamino)sulfonyl-N-piperidyl)phenyl)]-2-[(E)-(4-benzyloxy-2-hydroxyphenyl)methylidene]-1-hydrazonecarbothiamide [(52)]”, the “MIC C. albicans” value was over 64 mg/L.

Staying with this assay, now noted: Candida albicans, ATCC10231, 35° C., 48 hours, C. albicans ATCC 10231.
As usually defined, the MIC is the lowest concentration that inhibits growth of the organism. Consider `COc1cc(O)c(C=NNc2nccnc2OC)c(OC)c1` [(5)], for which the MIC was 1 mg/L (≈ 3.29 µM).

`COc1nccnc1NN=Cc1cccc(O)c1O` [(6)]: inhibition of growth (MIC) required 2 mg/L (≈ 7.68 µM).

Regarding `COc1nccnc1NN=Cc1ccc(O)cc1O` [(7)], 1 mg/L (≈ 3.84 µM) was the least that counted as inhibitory (MIC).

The compound `COc1nccnc1N/N=C/c1ccc(O)c(O)c1O` [(8)] yielded an MIC of 4 mg/L (≈ 14.5 µM).

In turn, `COc1nccnc1N/N=C/c1ccc2ccccc2n1` [(9)] showed an MIC of 8 mg/L (≈ 28.6 µM).

Compound `O=C(O)c1ccc(O)c(C=NNc2ccccc2)c1` [(18), 5-carboxyl-2-hydroxybenzaldehyde-N-phenyl hydrazone] registered an MIC of 1 mg/L (≈ 3.9 µM).

As to `Oc1ccccc1C=NNc1ccccc1` [(19), 2-hydroxybenzaldehyde-N-phenyl hydrazone], the MIC amounted to 1 mg/L (≈ 4.71 µM).

Regarding `O=C(O)c1ccc(O)c(C=NNc2cccc([N+](=O)[O-])c2)c1` [(20), 5-carboxyl-2-hydroxybenzaldehyde-N-3-nitro-phenyl hydrazone], the MIC was found to be 8 mg/L (≈ 26.6 µM).

With `O=C(O)c1ccc(O)c(C=NNc2ccccc2OC(F)(F)F)c1` [(21), 5-carboxyl-2-hydroxybenzaldehyde-N-2-trifluoromethyloxy-phenyl hydrazone], the lowest concentration to inhibit growth (MIC) was 2 mg/L (≈ 5.88 µM).

The subject of the next assay is S. serevisiae. Nature of the assay: MIC, broth microdilution (NCCLS M27-A), S. cerevisiae. It counts as cell-based, Saccharomyces cerevisiae. The following applies: Saccharomyces cerevisiae, 48 h, read-out: MIC S. serevisiae. As to the method: as §1, §2, §3, §4, §5, §6
Stock solutions of control compounds (1.6 mg/ml, Amphotericin B or Itraconazole) are initially diluted in medium to a concentration of 32 μg/ml while stock solutions of test compounds (typically 12.8 mg/ml) are diluted to 256 μg/ml. Both of these (control and test compounds) represent 1:50 dilutions. For an assay with three fungal strains, 40 microliters of a stock solution are diluted to 2.0 ml with room temperature medium.
as §8
To every well in two rows, 100 μl of inoculum (2×) of a single strain is added. To the final two rows on the plate (G & H), only media is added. Addition of inoculum is best accomplished using an electronic multichannel (12) pipettor. […]
As to `COc1cc(O)c(C=NNc2nccnc2OC)c(OC)c1` [(5)], the minimal inhibitory concentration (MIC) worked out at 1 mg/L (≈ 3.29 µM).

For `COc1nccnc1NN=Cc1cccc(O)c1O` [(6)], the MIC worked out at 1 mg/L (≈ 3.84 µM).

On to `COc1nccnc1NN=Cc1ccc(O)cc1O` [(7)], for which the minimum inhibitory concentration (MIC) stood at 1 mg/L (≈ 3.84 µM).

`COc1nccnc1N/N=C/c1ccc(O)c(O)c1O` [(8)]: the MIC was found to be 2 mg/L (≈ 7.24 µM).

With `COc1nccnc1N/N=C/c1ccc2ccccc2n1` [(9)], the MIC amounted to 8 mg/L (≈ 28.6 µM).

As for `O=C(O)c1ccc(O)c(C=NNc2ccccc2)c1` [(18), 5-carboxyl-2-hydroxybenzaldehyde-N-phenyl hydrazone], the MIC is 1 mg/L (≈ 3.9 µM).

Take `Oc1ccccc1C=NNc1ccccc1` [(19), 2-hydroxybenzaldehyde-N-phenyl hydrazone]: the MIC turned out to be 1 mg/L (≈ 4.71 µM).

`O=C(O)c1ccc(O)c(C=NNc2cccc([N+](=O)[O-])c2)c1` [(20), 5-carboxyl-2-hydroxybenzaldehyde-N-3-nitro-phenyl hydrazone]: the MIC worked out at 16 mg/L (≈ 53.1 µM).

For `O=C(O)c1ccc(O)c(C=NNc2ccccc2OC(F)(F)F)c1` [(21), 5-carboxyl-2-hydroxybenzaldehyde-N-2-trifluoromethyloxy-phenyl hydrazone], the MIC was 1 mg/L (≈ 2.94 µM).

Still in this assay, the particulars now being: broth microdilution, 35° C., 48 hours; S. cerevisiae CTY552.
“2-pyridyl-benzaldehyde-N-(3-methoxy-2-pyrazinyl)hydrazine [(34)]”: the “MIC S. serevisiae” value was found to be 1 mg/L.

For “3-carboxyl-2-hydroxybenzaldehyde-N-(3-methoxy-2-phenyl)hydrazine [(17)]”, the “MIC S. serevisiae” value was over 128 mg/L.

For another assay, the system named is A. Nidulans. Nature of the assay: MIC, broth microdilution (NCCLS M27-A), A. nidulans. It counts as cell-based. The following applies: 35° C., 48 hours. As to the method:
as §1
Filamentous fungi (Aspergillus spp.) is cultured on PDA plates in a 35° C. incubator. Inoculum of Aspergillus for susceptibility testing is prepared from plates incubated at 35° C. for 5 days. Colonies are covered with 5 ml of sterile 0.85% saline (8.5 g/liter NaCl) and gently rocked for 10-15 minutes. To dislodge the conidia, an automatic pipettor is used to gently wash over the colonies. The saline solution is removed from the plate and the heavy particles are allowed to settle for 3-5 minutes. The upper suspension is removed and vortexed for 15 sec. The turbidity of the solution is determined by measuring the absorbance in a spectrophotometer (Shimadzu UV-1201S UV-VIS Spectrophotometer) set at 600 nm. An absorbance value between 0.1 and 0.4 is required for an accurate reading.
The cell suspension is diluted with the appropriate medium (typically RPMI-1640) to OD600 =0.0004. The final suspension should contain approximately 3×10^3 cfu per ml (this is a 2×concentrationinoculum). Two 100 μl aliquots of this dilution are spread on SDA plates and incubated at 35° C. for 1-2 days to determine the precise number of colony forming units. An acceptable range for the inoculum (2×) is 1-5×10^3 cfu/ml (100-500 for 100 μl). Following two-fold dilution of the inoculum with compound, the final concentration of cells will be 0.5-2.5×10^3 per ml. The inoculum is kept at 4° C. and used within a few hours.
as §5, §6, §7, §8, §9
Consider “2-pyridyl-benzaldehyde-N-(3-methoxy-2-pyrazinyl)hydrazine [(34)]”, for which the “MIC A. Nidulans” value is 1 mg/L.

With “3-carboxyl-2-hydroxybenzaldehyde-N-(3-methoxy-2-phenyl)hydrazine [(17)]”, the “MIC A. Nidulans” value was over 128 mg/L.

For the compound “N-[(4-dimethylamino)sulfonyl-N-piperidyl)phenyl)]-2-[(E)-(4-benzyloxy-2-hydroxyphenyl)methylidene]-1-hydrazonecarbothiamide [(52)]”, the “MIC A. Nidulans” value was over 64 mg/L.

Staying with this assay, now noted: Aspergillus nidulans, 35° C., 48 hours.
On to `COc1cc(O)c(C=NNc2nccnc2OC)c(OC)c1` [(5)], for which the MIC came out at 2 mg/L (≈ 6.57 µM).

With `COc1nccnc1NN=Cc1cccc(O)c1O` [(6)], the MIC stood at 1 mg/L (≈ 3.84 µM).

The compound `COc1nccnc1NN=Cc1ccc(O)cc1O` [(7)] yielded an MIC of 2 mg/L (≈ 7.68 µM).

`COc1nccnc1N/N=C/c1ccc(O)c(O)c1O` [(8)]: the MIC is over 128 mg/L.

`COc1nccnc1N/N=C/c1ccc2ccccc2n1` [(9)] yielded an MIC of 16 mg/L (≈ 57.3 µM).

The compound `O=C(O)c1ccc(O)c(C=NNc2ccccc2)c1` [(18), 5-carboxyl-2-hydroxybenzaldehyde-N-phenyl hydrazone] displayed an MIC of 0.125 mg/L (≈ 0.488 µM).

For `Oc1ccccc1C=NNc1ccccc1` [(19), 2-hydroxybenzaldehyde-N-phenyl hydrazone], the MIC was 0.125 mg/L (≈ 0.589 µM).

In the case of `O=C(O)c1ccc(O)c(C=NNc2cccc([N+](=O)[O-])c2)c1` [(20), 5-carboxyl-2-hydroxybenzaldehyde-N-3-nitro-phenyl hydrazone], the MIC is 2 mg/L (≈ 6.64 µM).

As to `O=C(O)c1ccc(O)c(C=NNc2ccccc2OC(F)(F)F)c1` [(21), 5-carboxyl-2-hydroxybenzaldehyde-N-2-trifluoromethyloxy-phenyl hydrazone], the MIC came to 1 mg/L (≈ 2.94 µM).

The values are drawn from patent US6329378A, “Hydrazone, hydrazine and thiosemicarbazone derivatives as antifungal agents” (Anadys Pharmaceuticals, Inc., priority 2000, dated 2001).
